Like-named read-outs stand apart in the source and are kept apart here.
Key:
[1] = target: T1, SF3b complexes (Homo sapiens, UniProt O75533+Q7RTV0); experiment: Scintillation proximity assay (SPA) with [3H]-labelled pladienolide probe; format: binding; conditions: SF3B1 (WT); geometric mean; read-out: SPA-ATS GMean IC50 (nM) SF3B1 (WT)
T1 construct: endogenous in cells; host or cells: Nuclear extracts; A HeLa S3 extract preparation is described for the in vitro splicing assay
How it was run: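 SF3b complexes captured from nuclear extracts on anti-SF3B1 antibody SPA beads; test compounds pre-incubated 30 min before 2.5 nM [3H]-pladienolide probe added, then 30 min incubation. Bound probe read by scintillation; values from non-linear regression of concentration–response curves.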

[2] = system: Ad2 variant pre-mRNAs spliced in HeLa S3 nuclear extracts; experiment: In vitro splicing assay (IVS), RT-qPCR of spliced product; format: biochemical; conditions: for IC50: geometric mean; for Ratio Ad2.1/2.2: ratio of IVS IC50 Ad2.1 to Ad2.2
How it was run: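 Read-out is one-step TaqMan RT-qPCR of spliced Ad2 mRNA with Ftz as reference, normalized to DMSO and fit by non-linear regression. Reactions held HeLa S3 nuclear extract, 2 ng Ad2-derived pre-mRNA and test compound, with 15 min preincubation. Splicing was started with ATP-containing activation buffer and run 90 min at 30 °C.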

[3] = system: NCI-H1568 cells (high MCL1); experiment: Cell proliferation and viability, CellTiter-Glo, 72 hours; format: cell-based; conditions: for GI50: geometric mean
How it was run: (§1)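 RPMI-1640/10% FBS (Panc: + insulin, FBS 15%); 11-pt half-log dose, ~10 μM-100 pM, 0.1% DMSO; 37° C, 5% CO2; ATP luminescence read; % inhibition vs T0 and vehicle, −100% cidal to 100% uninhibited growth.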

[4] = system: Panc 05.04 cells (SF3b K700E mutant); experiment: as above; format: cell-based; conditions: for GI50: geometric mean
How it was run: as §1

[5] = Ad2.1 pre-mRNA substrate, read-out: qPCR-IVS-ATS GMean IC50 (nM) Ad2.1
[6] = Ad2.2 pre-mRNA substrate, read-out: qPCR-IVS-ATS GMean IC50 (nM) Ad2.2
[7] = NCI-H1568, read-out: CTGlo-ATS GMean GI50 (nM) 72 h NCIH1568.1, NCIH1568.1 cells, 72 h
[8] = NCIH1568.1 cells, 72 h, −100% cidal, 0% static, 100% maximal growth
[9] = PANC0504.1 cells, 72 h, −100% cidal, 0% static, 100% maximal growth
[10] = Panc 05.04, read-out: CTGlo-ATS GMean GI50 (nM) 72 h PANC0504.1, PANC0504.1 cells, 72 h
[11] = 72 h, NCIH1568.1, -100% = cidal, 0% = static, 100% = uninhibited growth
[12] = NCI-H1568, 72 h, read-out: CTGlo-ATS GMean GI50 (nM) 72 h NCIH1568.1, 72 h, NCIH1568.1
[13] = 72 h, PANC0504.1, -100% = cidal, 0% = static, 100% = uninhibited growth
[14] = Panc 05.04, 72 h, read-out: CTGlo-ATS GMean GI50 (nM) 72 h PANC0504.1, 72 h, PANC0504.1

Row | Compound | IC50 [1] | IC50 [2, 5] | IC50 [2, 6] | GI50 [3, 7] | CTGlo-ATS Mean MinResponse % 72 h NCIH1568.1 [3, 8] | CTGlo-ATS Mean MinResponse % 72 h PANC0504.1 [4, 9] | GI50 [4, 10] | Ratio Ad2.1/2.2 [2] | CTGlo-ATS Mean MinResponse % 72 h NCIH1568.1 [3, 11] | GI50 [3, 12] | CTGlo-ATS Mean MinResponse % 72 h PANC0504.1 [4, 13] | GI50 [4, 14] | GI50 ([3]; NCI-H1568, 72 h, read-out: CTGlo-ATS GMean GI50 (nM) 72 h NCIH1568.1, NCIH1568.1 cells, 72 h) | GI50 ([4]; Panc 05.04, 72 h, read-out: CTGlo-ATS GMean GI50 (nM) 72 h PANC0504.1, PANC0504.1 cells, 72 h) | GI50 ([3]; NCI-H1568, read-out: CTGlo-ATS GMean GI50 (nM) 72 h NCIH1568.1, 72 h, NCIH1568.1) | GI50 ([4]; Panc 05.04, read-out: CTGlo-ATS GMean GI50 (nM) 72 h PANC0504.1, 72 h, PANC0504.1)
1 | C/C(=C\c1cc(F)c2cnn(CC(=O)N3CCCC3)c2c1)[C@H]1OC(=O)C[C@H](O)CC[C@H](C)[C@@H](OC(=O)N2CCN(C)CC2)/C=C/[C@@H]1C [Compound 129] | 4.38 nM | 32 nM | 15.6 nM | 4.73 nM | −70.909% | −94.183% | 11.3 nM | – | – | – | – | – | – | – | – | –
2 | C/C(=C\c1cc(F)cc(N2CCN(CC(F)(F)F)CC2)c1)[C@H]1OC(=O)C[C@H](O)CC[C@H](C)[C@@H](OC(=O)N2CCN(C)CC2)/C=C/[C@@H]1C [Compound 107] | 8.76 nM | 190 nM | 25.4 nM | 7.27 nM | −87.564% | −83.679% | 8.46 nM | – | – | – | – | – | – | – | – | –
3 | C/C(=C\c1cccc(S(=O)(=O)C2CC2)c1)[C@H]1OC(=O)C[C@H](O)CC[C@H](C)[C@@H](OC(=O)N2CCN(C)CC2)/C=C/[C@@H]1C [Compound 215, [(2S,3S,4E,6R,7S,10R)-2-[(E)-1-(3-cyclopropylsulfonylphenyl)prop-1-en-2-yl]-10-hydroxy-3,7-dimethyl-12-oxo-1-oxacyclododec-4-en-6-yl] 4-methylpiperazine-1-carboxylate] | 6.83 nM | 20500 nM | 50.7 nM | – | – | – | – | 403.817 | −42.412% | 25 nM | −81.853% | 20 nM | – | – | – | –
4 | C/C(=C\c1cc(F)cc(N2CCC[C@H]2CO)c1)[C@H]1OC(=O)C[C@H](O)CC[C@H](C)[C@@H](OC(=O)N2CCN(C)CC2)/C=C/[C@@H]1C [Compound 15] | 6.33 nM | 21.6 nM | 12.3 nM | – | −74.931% | −80.816% | – | – | – | – | – | – | 7.58 nM | 6.23 nM | – | –
5 | C/C(=C\c1cccc(S(=O)(=O)N2CCCC2)c1)[C@H]1OC(=O)C[C@H](O)CC[C@H](C)[C@@H](OC(=O)N2CCN(C)CC2)/C=C/[C@@H]1C [Compound 214, [(2S,3S,4E,6R,7S,10R)-10-hydroxy-3,7-dimethyl-12-oxo-2-[(E)-1-(3-pyrrolidin-1-ylsulfonylphenyl)prop-1-en-2-yl]-1-oxacyclododec-4-en-6-yl] 4-methylpiperazine-1-carboxylate] | 2.3 nM | 3920 nM | 19.2 nM | – | – | – | – | 204.217 | −48.793% | 6.37 nM | −91.986% | 3.29 nM | – | – | – | –
6 | C/C(=C\c1cc(S(=O)(=O)N2CCC(O)CC2)ccc1F)[C@H]1OC(=O)C[C@H](O)CC[C@H](C)[C@@H](OC(=O)N2CCN(C)CC2)/C=C/[C@@H]1C [Compound 91, [(2S,3S,4E,6R,7S,10R)-2-[(E)-1-[2-fluoro-5-(4-hydroxypiperidin-l-yl)sulfonylphenyl]prop-1-en-2-yl]-10-hydroxy-3,7-dimethyl-12-oxo-1-oxacyclododec-4-en-6-yl] 4-methylpiperazine-1-carboxylate] | 6.04 nM | 14.7 nM | 18.9 nM | 6.86 nM | −64.491% | −90.776% | 4.64 nM | – | – | – | – | – | – | – | – | –
7 | C/C(=C\c1cc(N2CCOCC2)ccc1F)[C@H]1OC(=O)C[C@H](O)CC[C@H](C)[C@@H](OC(=O)N2CCN(C)CC2)/C=C/[C@@H]1C [Compound 7] | 2.88 nM | 1250 nM | 25.1 nM | 15.1 nM | −56.359% | −89.436% | 8.96 nM | – | – | – | – | – | – | – | – | –
8 | C/C(=C\c1cc(F)cc(N2CCN(CCO)CC2)c1)[C@H]1OC(=O)C[C@H](O)CC[C@H](C)[C@@H](OC(=O)N2CCC(N3CCCCC3)CC2)/C=C/[C@@H]1C [Compound 13] | 7.43 nM | 19.3 nM | 15.9 nM | 20.8 nM | −95.312% | −94.040% | 32.7 nM | – | – | – | – | – | – | – | – | –
9 | C/C(=C\c1cc(F)cc(N(C)C2CCS(=O)(=O)CC2)c1)[C@H]1OC(=O)C[C@H](O)CC[C@H](C)[C@@H](OC(=O)N2CCN(C)CC2)/C=C/[C@@H]1C [Compound 172] | 5.58 nM | 22.6 nM | 15.4 nM | 8.72 nM | −74.177% | −88.455% | 17.9 nM | – | – | – | – | – | – | – | – | –
10 | CC[C@H](O)[C@@H](C)C(=O)N1CCN(c2cc(F)cc(/C=C(\C)[C@H]3OC(=O)C[C@H](O)CC[C@H](C)[C@@H](OC(=O)N4CCN(C)CC4)/C=C/[C@@H]3C)c2)CC1 [Compound 72] | 4.66 nM | 35.8 nM | 14 nM | 4.19 nM | −80.730% | −75.581% | 5.68 nM | – | – | – | – | – | – | – | – | –
11 | C/C(=C\c1cccc(S(=O)(=O)N2CC(F)(F)C2)c1)[C@H]1OC(=O)C[C@H](O)CC[C@H](C)[C@@H](OC(=O)N2CCN(C)CC2)/C=C/[C@@H]1C [Compound 206, [(2S,3S,4E,6R,7S,10R)-2-[(E)-1-[3-(3,3-difluoroazetidin-1-yl)sulfonylphenyl]prop-1-en-2-yl]-10-hydroxy-3,7-dimethyl-12-oxo-1-oxacyclododec-4-en-6-yl] 4-methylpiperazine-1-carboxylate] | 1.81 nM | > 25000 nM | 113 nM | – | – | – | – | 221.630 | −57.585% | – | −83.659% | – | – | – | 72.2 nM | 62.3 nM
12 | C/C(=C\c1cc(F)cc(N2CCOCC2)c1)[C@H]1OC(=O)C[C@H](O)CC[C@H](C)[C@@H](OC(=O)N(C)CCC#N)/C=C/[C@@H]1C [Compound 245, [(2S,3S,4E,6R,7S,10R)-2-[(E)-1-(3-fluoro-5-morpholin-4-ylphenyl)prop-1-en-2-yl]-10-hydroxy-3,7-dimethyl-12-oxo-1-oxacyclododec-4-en-6-yl] N-(2-cyanoethyl)-N-methylcarbamate] | 17.4 nM | 8880 nM | 64.8 nM | – | – | – | – | 136.897 | −46.475% | 62.3 nM | −95.548% | 113 nM | – | – | – | –
13 | C/C(=C\c1cc(F)cc(N2CCOCC2=O)c1)[C@H]1OC(=O)C[C@H](O)CC[C@H](C)[C@@H](OC(=O)N2CCN(C)CC2)/C=C/[C@@H]1C [Compound 56] | 1.94 nM | 16.1 nM | 15.3 nM | 4.42 nM | −67.625% | −90.320% | 1.85 nM | – | – | – | – | – | – | – | – | –
14 | C/C(=C\c1cc(F)c2cnn(C3CCOCC3)c2c1)[C@H]1OC(=O)C[C@H](O)CC[C@H](C)[C@@H](OC(=O)N2CCN(C)CC2)/C=C/[C@@H]1C [Compound 116] | 4.45 nM | 25 nM | 19.2 nM | 1.55 nM | −90.483% | −76.511% | 2.2 nM | – | – | – | – | – | – | – | – | –

— US11679107B2 (Eisai R&D Management Co., Ltd., priority 2018, dated 2023)
